Structures can show the parent of a compound that is named as a salt. Where two headings read alike, the source gives them in different places.
Experiments:
[1] = system: AR splice variants (AR-Vs); experiment: Degradation experiment on AR splice variants (AR-Vs) in 22RV1 cells; format: cell-based; details: 24 h; for AR-Vs Dmax % (maximum degradation rate): relative to vehicle control
Procedure: (§1) Prostate cancer cells 22RV1 were purchased from ATCC, the cell medium was 1640+10% FBS, and the cells were cultured in an incubator at 37° C. under 5% CO2. On day 1, the cells in an exponential phase were collected. With a 1% css-FBS phenol red-free medium, the cell suspension was adjusted to a corresponding concentration and plated into a 6-well plate at 1 mL/well and 100000 cells/well. The next day, a 1% css-FBS phenol-free medium containing the compound to be tested was added, a 1% css-FBS phenol-free medium containing 0.2% DMSO was added to one well as DMSO vehicle control, and the 6-well plate was cultured in an incubator at 37° C. under 5% CO2. After 24 h, the cells were digested with pancreatin and collected into a 1.5 mL centrifuge tube. 15 μL of RIPA lysate (containing 1×protease inhibitor cocktail) was added to each well, and the cells were lysed on ice for 15 min and then centrifuged at 12000 g and 4° C. for 10 min. The supernatant protein samples were collected, and protein quantification was performed by a BCA method. AR-FL and AR-Vs were detected using fully automatic protein expression quantitative analysis, which involved diluting the protein to be tested to 1 mg/mL. 4 μL of the diluted protein samples were added to 1 μL of 5×Master Mix (provided in the kit), and the prepared samples were denatured at 95° C. for 5 min and placed on ice for use. The primary antibodies, AR (CST, 5153S) and β-actin (CST, 3700), were diluted with Antibody Diluent II (provided in the kit) at a dilution ratio of 1:20 and 1:200, respectively. The secondary antibody was a mixed goat anti-mouse and goat anti-rabbit secondary antibody in a ratio of 1:1, and the color development solution was a mixed solution of Lumino-S and Peroxide in a ratio of 1:1. The prepared reagents were successively added to an assay plate according to instructions of the kit and detected on an instrument. Western blot band processing was performed using “Compass for SW”, a fully automatic protein expression quantitative analysis software, in which western blot bands were automatically simulated based on signal values. The degradation rate of AR-FL (3) or AR-Vs (4) relative to vehicle control at different compound concentrations was calculated according to formulas (3) and (4), wherein AR-FLcompound was the relative peak area of AR-FL in the treated group, and AR-FLsolvent was the relative peak area of AR-FL in the vehicle control group; AR-Vscompound was the relative peak area of AR-Vs in the treated group, and AR-Vssolvent was the relative peak area of AR-Vs in the vehicle control group.
(§2) DC50 calculation: the compound concentration DC50 values at which the degradation rate of AR-FL or AR-Vs was 50% were calculated using OriginPro2015 software and analyzed using DoseResp function according to formula (3) or (4).

full-length AR (AR-FL) = experiment: Degradation experiment on full-length AR (AR-FL) in 22RV1 cells; format: cell-based; details: 24 h; for AR-FL Dmax % (maximum degradation rate): relative to vehicle control
Procedure: as §1, §2

22RV1 cells = experiment: Experiment 2 on inhibiting 22RV1 cell proliferation (7 days, CellTiter-Glo); format: cell-based; details: 1% css-FBS phenol red-free medium, incubated with compound 7 days, read-out: IC50 values on proliferation inhibition of 22RV1 cells
Outline: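 Survival measured by CellTiter-Glo after 7 days of compound exposure, normalised to DMSO controls, with IC50 fitted by dose-response. Cells (22RV1, 2000/well) were seeded overnight in 1% css-FBS phenol red-free medium before dosing.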

[2] = Pharmacokinetic test in rats; format: in vivo; details: rat, po; male SD rats, single dose i.g. 5 mg/kg, plasma, 0-24 h
Procedure: Test objective: in this test, a single dose of test compounds was administered to SD rats intragastrically, and the concentrations of the test compounds in plasma of the rats were measured to evaluate pharmacokinetic characteristics of the test compounds in the rats.
Test animals: male SD rats, 200-250 g, 6-8 weeks old, 3 rats/compound, purchased from Chengdu Dossy Experimental Animals Co., Ltd.
Test method: on the day of the test, 3 SD rats were randomly grouped according to their body weights. The animals were fasted with water available for 12 to 14 hours one day before the administration of a test compound, and were fed 4 hours after the administration.
Sampling: before and after the administration, 0.1 mL of blood was taken from the orbits of the rats under isoflurane anesthesia, and placed in an EDTAK2 centrifuge tube. Centrifugation was carried out at 5000 rpm at 4C for […], and the plasma was collected.
Time points for plasma collection in G1 group: 0, 5 min, 15 min, 30 min, 1 h, 2 h, 4 h, 6 h, 8 h, and 24 h.
Before analysis and detection, all samples were stored at −80° C. The samples were analyzed quantitatively by LC-MS/MS.

[3] = degradation rate 50% relative to vehicle control

SMILES | AR-Vs Dmax % (maximum degradation rate) [1] | AR-FL Dmax % (maximum degradation rate) (full-length AR (AR-FL)) | IC50 (22RV1 cells) | IC50 (22RV1 cells; Homo sapiens, 22Rv1, 168 h) | AUC(0-t) [2] | DC50 [1, 3] | DC50 (full-length AR (AR-FL); [3])
Cn1c(=O)n(C2CCC(=O)NC2=O)c2cccc(CN3CC(N4CCC(N5CCN(c6nccc(COc7ccc(C(C)(C)c8cc(Cl)cc(C#N)c8)cc7)n6)CC5)CC4)C3)c21 (stereo not drawn) [Compound 9 trifluoroacetate, 3-chloro-5-(2-(4-((2-(4-(1-(1-((1-(2,6-dioxopiperidin-3-yl)-3-methyl-2-oxo-2,3-dihydro-1H-benzo[d]imidazol-4-yl)methyl)azetidin-3-yl)piperidin-4-yl)piperazin-1-yl)pyrimidin-4-yl)methoxy)phenyl)propan-2-yl)benzonitrile (Compound 9) trifluoroacetate] | 76.8% | 68.3% | – | – | – | – | –
CC(C)(c1ccc(OCc2ccnc(N3CCN(C4CCN(C5CN(c6ccc7c(c6)C(=O)N(C6CCC(=O)NC6=O)C7=O)C5)CC4)CC3)n2)cc1)c1cc(Cl)cc(C#N)c1 (stereo not drawn) [Compound 10, 3-chloro-5-(2-(4-((2-(4-(1-(1-(2-(2,6-dioxopiperidin-3-yl)-1,3-dioxoisoindolin-5-yl)azetidin-3-yl)piperidin-4-yl)piperazin-1-yl)pyrimidin-4-yl)methoxy)phenyl)propan-2-yl)benzonitrile] | 64% | – | 562 nM | – | – | – | –
CCOc1c(Cl)cc(C(C)(C)c2ccc(OCc3ccnc(N4CCN(C5CCN(C6CN(Cc7cccc8c7n(C)c(=O)n8C7CCC(=O)NC7=O)C6)CC5)CC4)n3)cc2)cc1C#N (stereo not drawn) [Compound 18, 3-chloro-5-(2-(4-((2-(4-(1-(1-((1-(2,6-dioxopiperidin-3-yl)-3-methyl-2-oxo-2,3-dihydro-1H-benzo[d]imidazol-4-yl)methyl)azetidin-3-yl)piperidin-4-yl)piperazin-1-yl)pyrimidin-4-yl)methoxy)phenyl)propan-2-yl)-2-ethoxybenzonitrile] | 91% | 53% | 452 nM | – | – | – | –
Cn1c(=O)n(C2CCC(=O)NC2=O)c2ccc(N3CCC(C4CCN(CC5CCN(c6nccc(COc7ccc(C(C)(C)c8cc(Cl)cc(C#N)c8)cc7)n6)CC5)CC4)CC3)cc21 (stereo not drawn) [Compound 88 trifluoroacetate, 3-chloro-5-(2-(4-((2-(4-((1′-(1-(2,6-dioxopiperidin-3-yl)-3-methyl-2-oxo-2,3-dihydro-1H-benzo[d]imidazol-5-yl)-[4,4′-bipiperidin]-1-yl)methyl)piperidin-1-yl)pyrimidin-4-yl)methoxy)phenyl)propan-2-yl)benzonitrile] | 73% | 64% | – | 899 nM | 740 ± 362 ng·h/mL | – | –
CCOc1c(Cl)cc(C(C)(C)c2ccc(OCc3ccnc(N4CCC(CN5CCC(C6CCN(c7ccc8c(c7)n(C)c(=O)n8C7CCC(=O)NC7=O)CC6)CC5)CC4)n3)cc2)cc1C#N (stereo not drawn) [Compound 94 trifluoroacetate, 3-chloro-5-(2-(4-((2-(4-((1′-(1-(2,6-dioxopiperidin-3-yl)-3-methyl-2-oxo-2,3-dihydro-1H-benzo[d]imidazol-5-yl)-[4,4′-bipiperidin]-1-yl)methyl)piperidin-1-yl)pyrimidin-4-yl)methoxy)phenyl)propan-2-yl)-2-ethoxybenzonitrile] | 83% | 84% | – | 678 nM | 1700 ± 335 ng·h/mL | – | –
COc1c(Cl)cc(C(C)(C)c2ccc(OCc3ccnc(N4CCC(CN5CCC(C6CCN(c7ccc8c(c7)n(C)c(=O)n8C7CCC(=O)NC7=O)CC6)CC5)CC4)n3)cc2)cc1C#N (stereo not drawn) [Compound 97 trifluoroacetate, 3-chloro-5-(2-(4-((2-(4-((1′-(1-(2,6-dioxopiperidin-3-yl)-3-methyl-2-oxo-2,3-dihydro-1H-benzo[d]imidazol-5-yl)-[4,4′-bipiperidin]-1-yl)methyl)piperidin-1-yl)pyrimidin-4-yl)methoxy)phenyl)propan-2-yl)-2-methoxybenzonitrile (Compound 97) trifluoroacetate] | – | – | – | 421 nM | 658 ± 133 ng·h/mL | 1070 nM | 1180 nM
CC(C)(c1ccc(OCc2ccnc(N3CCC(CN4CCC(C5CCN(c6ccc(C(=O)NC7CCC(=O)NC7=O)nc6)CC5)CC4)CC3)n2)cc1)c1cc(Cl)cc(C#N)c1 (stereo not drawn) [Compound 110 trifluoroacetate, 5-(1′-((1-(4-((4-(2-(3-chloro-5-cyanophenyl)propan-2-yl)phenoxy)methyl)pyrimidin-2-yl)piperidin-4-yl)methyl)-[4,4′-bipiperidin]-1-yl)-N-(2,6-dioxopiperidin-3-yl)picolinamide] | 56% | – | – | 446 nM | 563 ± 350 ng·h/mL | – | –
COc1c(Cl)cc(C(C)(C)c2ccc(OCc3ccnc(N4CCC(CN5CCC(N6CCC(c7ccc8c(c7)n(C)c(=O)n8C7CCC(=O)NC7=O)CC6)CC5)CC4)n3)cc2)cc1C#N (stereo not drawn) [Compound 116 trifluoroacetate, 3-chloro-5-(2-(4-((2-(4-((4-(1-(2,6-dioxopiperidin-3-yl)-3-methyl-2-oxo-2,3-dihydro-1H-benzo[d]imidazol-5-yl)-[1,4′-bipiperidin]-1′-yl)methyl)piperidin-1-yl)pyrimidin-4-yl)methoxy)phenyl)propan-2-yl)-2-methoxybenzonitrile] | 67% | 77% | – | 821 nM | – | – | –
Cn1c(=O)n(C2CCC(=O)NC2=O)c2cccc(CN3CCC(CN4CCC(C5CCN(c6nccc(COc7ccc(C(C)(C)c8cc(Cl)c(OCCCl)c(C#N)c8)cc7)n6)CC5)CC4)CC3)c21 (stereo not drawn) [Compound 126 trifluoroacetate, 3-chloro-2-(2-chloroethoxy)-5-(2-(4-((2-(1′-((1-((1-(2,6-dioxopiperidin-3-yl)-3-methyl-2-oxo-2,3-dihydro-1H-benzo[d]imidazol-4-yl)methyl)piperidin-4-yl)methyl)-[4,4′-bipiperidin]-1-yl)pyrimidin-4-yl)methoxy)phenyl)propan-2-yl)benzonitrile] | 95% | 98% | – | – | – | – | –
